This test deals with HCT-116 colon cancer cell line. The experiment in a line: MTT cell proliferation assay on HCT-116 cells. It is filed as cell-based. Here is the method: For cell culture experiments various cancer cell lines, HCT-116 colon cancer, U87-MG glial tumor, MCF7 breast cancer cell lines were used. Cells were seeded with high glucose DMEM medium (Biosera) supplemented with 10% FBS (Gibco) and 1X penicillin/streptomycin (Multicell). Twenty-four hours prior to molecule treatment, 10,000 cells were seeded into each well of 24-well cell culture plates. Molecules were used by preparing 4 mM stock solution in DMSO (Amresco). For molecule treatment, molecule stock solutions were diluted in DMEM with 10% FBS and added onto cells in each corresponding well. Final concentration of vehicle DMSO was 2% at maximum. […] We calculated the number of cells to be seeded to make sure that none of the cells reaches more than 60% confluency during the treatment period, as higher plate confluency levels would slow down cell proliferation independently from the molecule treatment.
Values of half-maximal inhibitory concentration were (IC50) determined by MTT cell proliferation assays. […] 570 nm absorbance values were recorded and IC50 values were calculated by dose response—inhibition curves and nonlinear regression analysis on GraphPad Prism 8 software. […] Following the initial incubation day, molecules were added and after incubation with MTT at 37° C. for 4 hours, formazan was solubilized with DMSO (Sigma-Aldrich, St. Louis, USA) and absorbance was measured at 570 nm. […]
A general note: Tetrazolium assays rely on reduction of a dye to a coloured formazan, in cell work by metabolically active cells.

The values that follow come from patent US12435074B2, “Physics-driven discovery of novel small therapeutic compounds for use as a BCL-2 inhibitor” (BAHCESEHIR UNIVERSITESI, priority 2020, dated 2025).

As for `CCC(C)(C)C1CCc2c(sc(NC(=O)c3cc(-c4ccc(Cl)s4)nc4ccccc34)c2C(N)=O)C1` (centres unmarked) [compound of formula I], the “proliferation of HCT-116 cells compared to vehicle group” value (FIG. 1, versus vehicle (max 2% DMSO)) was “reduced proliferation and apoptotic cell structures”. In addition, the IC50 (Homo sapiens, 72 h, single treatment, three days results, 570 nm absorbance, read-out: IC50 (half-maximal inhibitory concentration)) is 130 µM.
